Measurements taken from patent US7723037B2, “Methods and kits for diagnosing or monitoring autoimmune and chronic inflammatory disease” (The Regents of the University of Michigan, priority 2004, dated 2010).

Experiments:
CD70 [1] = settings: PHA-stimulated T cells, 3 days, oligonucleotide arrays, mean±SEM, 2 independent experiments
CD70 promoter = test: Bisulfite sequencing of the CD70 (TNFSF7) promoter in CD4+ T cells; type: cell-based, human; settings: for methylation of the 10 CG pairs between −515 and −423 of the TNFSF7 promoter: CD4+ T cells stimulated with anti-CD3 and anti-CD28, vs stimulated untreated controls (FIG. 13, 14)
Protocol: (§1) In other studies, T cells were isolated by negative selection using magnetic beads and instructions provided by the manufacturer (Pan T cell Isolation Kit, Miltenyi), and the CD4+ or CD8+ subset was similarly isolated by magnetic cell sorting. Jurkat cells (E6-1) were cultured as previously described (See, e.g., Cornacchia et al., J Immunol 140:2197 (1998)). Purified human CD4+ T cells were first stimulated with plate bound anti-CD3 and soluble anti-CD28. Briefly, 24 well plates were coated with 300 μl of anti-CD3 (10 μg/ml in PBS—SouthernBiotech) 18 hours 4° C., washed, then 2×10^6 purified T cells were added to the wells in 2 ml RPMI 1640/10% FCS containing 2 μg/ml anti-CD28 (SouthernBiotech).
Bisulfite sequencing. The putative CD70 promoter was identified using the published CD70 cDNA sequence and Tfsitescan software. Deoxycytosine (dC) and deoxymethylcytosine (d^mC) bases in the gene promoter and 5′ flanking sequences were identified by bisulfite treatment of purified DNA followed by nested PCR amplification of 3 sequential fragments to span the entire region. The primers were designed to avoid CG pairs and to account for the conversion of dC to dU by the bisulfite. EcoRI sites were added to the forward primers, and XbaI to the reverse, to facilitate cloning. The amplified fragments were then cloned into PBS+, and 5 clones sequenced for each fragment. The primers used were: […]
The effect of lupus and DNA methylation inhibitors on a regulatory element in the CD70 promoter was examined. DNA was isolated from the CD4+ T cells of 7 healthy individuals or 6 lupus patients, bisulfite treated, the region from −466-−515, containing 6 CG pairs was amplified by PCR, and 5 fragments sequenced from each individual. The average methylation status of the 6 CG pairs for healthy versus lupus individuals is shown (FIG. 8, NI and Lupus, respectively). CD4+ T cells from 5 individuals were also stimulated with PHA, treated with the irreversible DNA methyltransferase inhibitor 5-azacytidine (5-azaC), and the methylation status of the 6 CG pairs similarly analyzed from the 25 fragments sequenced (FIG. 8, 5-azaC). […] Results are presented as the mean±SEM of the average methylation of the 6 CG pairs, measured from the 10-35 determinations/group.
The effects of the DNA methylation inhibitors on the methylation status of this region were then compared. […] Again, 5 cloned fragments were sequenced from each control, for a total of 35 determinations per CG pair. […] FIG. 14 compares the average methylation for the 10 CG pairs (−515 to −423) in the T cells treated with DNA methylation inhibitors relative to stimulated, untreated controls.

CD70 mRNA = test: Real time RT-PCR of CD70 transcripts relative to β-actin in T cells; type: cell-based, human; settings: for CD70 mRNA (transcripts) in CD4+ T cells: anti-CD3 + anti-CD28, 3 days, 5 μm 5-azaC, 50 μm Pca, 20 μm Hyd, 40 μm UO126, 25 μm PD98059 (FIG. 9); for expression of CD70 mRNA relative to that of beta-actin: PHA-stimulated T cells, treated vs untreated, real time RT-PCR (FIG. 1B)
Protocol: Cells and cell culture. Peripheral blood mononuclear cells (PBMCs) were isolated by density-gradient centrifugation. T cells were then isolated by E-rosetting (See, e.g., Golbus et al., Clin Immunol Immunopathol 46, 129 (1988)). […] Where indicated, the cells were cultured in RPMI 1640/10% fetal calf serum (FCS) supplemented with interleukin-2 (IL-2) (See, e.g., Richardson et al., Clin Immunol Immunopathol 55, 368 (1990)), in round-bottomed 5-ml culture tubes (FALCON). Cells were stimulated with 1 μg/ml of PHA (REMEL) for 16 hours, then cultured in 24-well plates at a density of 1×10^6 for an additional 72 hours in the presence of 2-deoxy-5-azaC or 5-azaC (SIGMA ALDRICH), procainamide (SIGMA ALDRICH), hydralazine (SIGMA ALDRICH), or the MEK inhibitors U0126 (PROMEGA) or PD98059 (PROMEGA). In other studies, PHA-stimulated PBMCs were cultured in RPMI 1640/10% FCS and treated with indomethacin, chloroquine, hydrocortisone, and 6-mercaptopurine (6-MP) (all from SIGMA ALDRICH). TT48E, a cloned, CD4+, tetanus toxoid-reactive human T cell line, was cultured as previously described (Cornacchia et al., J Immunol 140, 2197 (1988); Richardson et al., Arthritis Rheum 35, 647 (1992)).
as §1

CD70 [2] = test: Flow cytometric analysis of CD70 expression on drug-treated T cells; type: cell-based, human; settings: for CD70 expression on CD4+ T cells: summary statement; for increase of CD70 MFI on CD4+ T cells: 1 μM 5-azaC (n=5), 25 μM PD98059 (n=3), 40 μM U0126 (n=4); for CD70 expression increase on cloned T cell line TT48E: 1 μM 5-azaC or 40 μM U0126 for 3 days, 6 serial experiments; for CD70 expression on PHA-stimulated T cells, treated vs untreated: unfractionated T cells, 3 days, 1 μM 5-azaC, procainamide dose response, 25 μM PD98059, 40 μM U0126 (FIG. 2)
B cell IgG production = test: T cell and B cell costimulation assay, IgG ELISA of supernatants; type: cell-based, human; settings: autologous B cells; for IgG produced by B cells cultured with drug-treated cloned T cells vs untreated T cells: TT48E treated 3 days, without PWM, P<0.05 (FIG. 4); for IgG secreted by B cells cultured with drug-treated T cells vs untreated T cells: unfractionated PHA-stimulated T cells, PWM, 8 days, P<0.05 (FIG. 3)
Protocol: T cell and B cell costimulation assays. E-rosette-purified T cells were stimulated for 16 hours with PHA and then treated with the indicated chemicals for an additional 72 hours as described above. Where indicated, T cell subsets were isolated by negative selection using magnetic beads (Miltenyi). B cells (1-4×10^5) enriched by negative selection using magnetic beads (Miltenyi) and assessed to be 70-85% pure using PE-conjugated anti-human CD21 (PHARMINGEN), were added to washed, drug-treated autologous T cells, at T cell to B cell ratios of 4:1, 2:1, 1:1, 1:2, and 1:4. Where indicated, 0.625 μg/ml of PWM (ALDRICH) was added. The cells were cultured in RPMI 1640/10% FBS/penicillin/streptomycin for 8 days in 96-well roundbottomed plates (Costar) containing a 200 μl total volume (performed in duplicate). Cells were supplemented with 50 μl of medium on day 4. Where indicated, 1 μg/ml of anti-CD70 monoclonal antibody (HNE51) (DAKO) was added to the cultures. TT48E cells were similarly stimulated with PHA (1 μg/ml) for 18 hours, treated with the indicated drugs for 3 days, then similarly cultured with autologous B cells for 8 days. Where indicated, the TT48E cells were pretreated with 1 μg/ml of anti-CD70 for 30 minutes at 4° C., then washed and added to the B cells, according to protocols described by others (See, e.g., Kobata et al., Proc Natl Acad Sci USA 92, 11249 (1995)).
IgG enzyme-linked immunosorbent assays (ELISAs). IgG was measured in the supernatants of the T cell-B cell cultures (See, e.g., Richardson et al., Clin Immunol Immunopathol 55, 368 (1990)). Briefly, 96-well flatbottomed polystyrene plates (Costar) were coated with 1 μg/ml of goat anti-human IgG (Southern Biotech) and washed. Unreacted combining sites were sealed with 3% bovine serum albumin (BSA) in phosphate buffered saline (PBS) by incubation at 4° C. for 16 hours. Pooled supernatants from duplicate wells were diluted 1:5 in PBS/1% BSA, and 50 μl was added to the wells. Serial dilutions of purified human IgG (Sigma) were used for quantitation. Following incubation and washing, goat anti-human IgG conjugated with horseradish peroxidase (Southern Biotech) was added, and cells were incubated for 2 hours at room temperature. The wells were washed 3 times with PBS/0.1% Tween 20, and color was developed using Sigma Fast tablets. The plates were read at 405 nm using a SpectraMax spectrophotometer (Molecular Devices). All determinations were performed in quadruplicate.
Since CD70 participates in T cell-dependent B cell stimulation (See e.g., Kobata et al., Proc Natl Acad Sci USA 92, 11249 (1995)), the effects of DNA methylation inhibitors on CD70-dependent B cell help were examined. […] Eight days later, total IgG in the supernatants was measured by ELISA. […]

CD70 [3] = test: CD70 expression on CD4+ cells of PBMCs cultured with medications used to treat lupus, flow cytometry; type: cell-based, human; settings: PBMCs with or without PHA, 24 hours, graded concentrations (1-100 μM)

Row | SMILES | methylation of the 10 CG pairs between −515 and −423 of the TNFSF7 promoter (CD70 promoter) | CD70 mRNA (transcripts) in CD4+ T cells (CD70 mRNA) | CD70 expression on CD4+ T cells (CD70 [2]) | increase of CD70 MFI on CD4+ T cells (CD70 [2]) | CD70 expression on PHA-stimulated T cells, treated vs untreated (CD70 [2]) | CD70 expression on stimulated or unstimulated CD4+ cells (CD70 [3]) | further results
1 | Nc1ncn([C@H]2C[C@H](O)[C@@H](CO)O2)c(=O)n1 [2-deoxy-5-azaC] |  |  |  |  |  |  | CD70 expression increase in treated cells relative to untreated controls (CD70 [1]): 2.6±0.6 fold
2 | Nc1ncn([C@@H]2O[C@H](CO)[C@@H](O)[C@H]2O)c(=O)n1 [5-azaC, 5-azacytidine] | hypomethylated compared to controls | increased steady state levels of CD70 mRNA | increased CD70 expression | 1.53±0.45 fold | small increase |  | expression of CD70 mRNA relative to that of beta-actin (CD70 mRNA): increased the expression of CD70 mRNA; CD70 expression increase on cloned T cell line TT48E (CD70 [2]): 1.69±0.33 fold; concentration producing the greatest effect on CD70 expression (CD70 [2]; range of 5-azaC concentrations, PHA-stimulated T cells, n=5 experiments (FIG. 2B)): 1 µM; IgG produced by B cells cultured with drug-treated cloned T cells vs untreated T cells (B cell IgG production): greater amounts of IgG; IgG secreted by B cells cultured with drug-treated T cells vs untreated T cells (B cell IgG production): greater amounts of IgG; CD70 expression increase in treated cells relative to untreated controls (CD70 [1]): > 2 fold
3 | Sc1ncnc2nc[nH]c12 [6-MP, 6-mercaptopurine] |  |  |  |  |  | No increase in CD70 expression | 
4 | COc1cccc(-c2cc(=O)c3ccccc3o2)c1N [PD98059] | appears to demethylate | increased steady state levels of CD70 mRNA | increased CD70 expression | 1.63±0.43 fold | increase in CD70 expression |  | 
5 | N#CC(=C(/N)Sc1ccccc1N)/C(C#N)=C(\N)Sc1ccccc1N [U0126] | appears to demethylate | increased steady state levels of CD70 mRNA | increased CD70 expression | 3.20±0.44 fold | increase in CD70 expression |  | expression of CD70 mRNA relative to that of beta-actin (CD70 mRNA): increased the expression of CD70 mRNA; CD70 MFI increase in T cells treated with U0126 (FIG. 2I) (CD70 [2]; T cells treated with 40 μM U0126, P=0.085): 2.83±0.95 fold; CD70 expression increase on cloned T cell line TT48E (CD70 [2]): 1.87±0.37 fold; IgG produced by B cells cultured with drug-treated cloned T cells vs untreated T cells (B cell IgG production): greater amounts of IgG; IgG secreted by B cells cultured with drug-treated T cells vs untreated T cells (B cell IgG production): greater amounts of IgG
6 | CCN(CC)CCCC(C)Nc1ccnc2cc(Cl)ccc12 (stereo not drawn) [chloroquine] |  |  |  |  |  | No increase in CD70 expression | 
7 | C[C@]12CCC(=O)C=C1CC[C@@H]1[C@@H]2[C@@H](O)C[C@@]2(C)[C@H]1CC[C@]2(O)C(=O)CO [hydrocortisone] |  |  |  |  |  | No increase in CD70 expression | 
8 | COc1ccc2c(c1)c(CC(=O)O)c(C)n2C(=O)c1ccc(Cl)cc1 [indomethacin] |  |  |  |  |  | No increase in CD70 expression | 
9 | CCN(CC)CCNC(=O)c1ccc(N)cc1 [procainamide] | appears to demethylate | increased steady state levels of CD70 mRNA | increased CD70 expression |  | increase in the ratio of the mean fluorescence intensity (MFI) of CD70 expression |  | methylation of the region from −466-−515 (6 CG pairs) of the CD70 promoter (CD70 promoter; PHA-stimulated CD4+ T cells (FIG. 8)): demethylate this region
